Data on 16 molecules can be found in PubChem BioAssay (NCI).

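Growth conditions: 96-well plates. Treatment: test compound, 48 hours, 5 concentrations. Analysis: linear interpolation between bracketing concentrations; unreached endpoints set to highest concentration. TGI: total growth inhibition.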

Test in all cases: inhibition of tumour cell growth, NCI panel, 48 h
The subject of assay [1] is HOP-18 NSCLC.
Assay [2] deals with SW-620 colon.
Assay [3] relates to OVCAR-4 ovarian.
The subject of assay [4] is RPMI-8226 leukemia.
Assay [5] deals with K-562 leukemia.
Assay [6] relates to XF 498 CNS.
Assay [7] relates to SK-MEL-5 melanoma.
The test system of assay [8] is SF-268 CNS.
Assay [9] concerns A498 renal.

As for `N#C/C(=C\c1ccc(O)c(O)c1)C(=O)NC1CCC(CC2CCC(NC(=O)/C(C#N)=C/c3ccc(O)c(O)c3)CC2)CC1` (stereo not given), the TGI in assay [1] is > 100 µM; in [2] it was 25.7 µM; in [3] it was 40.6 µM; in assay [4], > 25.2 µM; in assay [5] it was 4.93 µM; in [6], 16.5 µM. In addition, the TGI was 12.8 µM in assay [7], 5.46 µM in assay [8] and > 100 µM in assay [9].

For `NNC(=S)N/N=C(/C(=O)Nc1cc(Cl)ccc1Cl)C1C(=O)Nc2ccccc2S1=O` (stereo not given), the TGI in assay [1], in assay [2], in [3], in assay [5], in assay [6] and in [7] was > 100 µM throughout. Also, the TGI in [8] and in assay [9] was > 100 µM throughout.

With `COc1ccc(N=Nc2c(-c3ccccc3)nn(C(=O)CC(=O)Nc3cccc(Cl)c3)c2-c2ccccc2)cc1`, the TGI in assay [1], in assay [2], in [3], in [4], in [5] and in [6] was > 100 µM each time. The TGI in [7], in [8] and in assay [9] was > 100 µM each time.

For the molecule `O=C(c1cc2ccccc2o1)N(Cc1ccccc1)c1ccccc1`, the TGI came out at 65.9 µM in assay [1]; 32.4 µM in assay [2]; 49.8 µM in [4]; 40 µM in [5]; 41.8 µM in assay [6]; 31.2 µM in assay [7]. Further, the TGI in assay [8] is > 100 µM; in assay [9], 89.1 µM.

Take `COC(=O)C1=C(C(=O)OC)C23CC1C1C(C(=O)OC)=C(C(=O)OC)C12C1C=CC3C2C(=O)OC(=O)C21` (stereo not given): the TGI in assay [2], in assay [3], in [4], in assay [5], in [6] and in assay [7] was > 100 µM in each case. In addition, the TGI in [8] is > 100 µM.

On to `CCCc1c[nH]c(-c2ccc(-c3cc(CCC)c(C=O)[nH]3)s2)c1`, for which the TGI in assay [1] amounted to 43 µM; in [2], 33.7 µM; in assay [3], 35.2 µM; in assay [5] it was 49.8 µM; in assay [6] it was 32.7 µM; in [7], 30.6 µM. Moreover, the TGI in assay [8] was found to be 34.6 µM; in [9] it was 20.5 µM.

For the molecule `Cc1c(C(=O)C/C(=N/NC(=O)C[n+]2ccccc2)C(=O)Nc2ccccc2)[n+](=O)c2ccccc2n1O`, the TGI in assay [1], in assay [2], in assay [3], in assay [4], in assay [5] and in assay [6] was > 100 µM throughout. Also, the TGI in assay [7], in assay [8] and in assay [9] was > 100 µM throughout.

`CC(O)C(N=Cc1nc(-c2ccccc2)oc1O)C(=O)O` (stereo not given): the TGI in assay [1], in assay [2], in assay [3], in assay [4], in [5] and in assay [6] was > 100 µM each time. In addition, the TGI in assay [7], in assay [8] and in assay [9] was > 100 µM throughout.

Take `O=c1cccccc1NCCCCCCNc1cccccc1=O`: the TGI in [1], in [2], in assay [3], in assay [4], in assay [5] and in assay [7] was > 100 µM throughout. Besides, the TGI in [8] and in assay [9] was > 100 µM in each case.

On to `CC(=O)O[C@]1(C)OC(=O)[C@@H](C)N1[N+](=O)[O-]`, for which the TGI in [1], in [2], in assay [3], in assay [4], in assay [5] and in [7] was > 100 µM in each case. Further, the TGI in assay [9] is > 100 µM.

Regarding `CC(C)(C)CC(C)(C)c1cc2c(O)c(c1)Cc1cc(C(C)(C)CC(C)(C)C)cc(c1O)Cc1cc(C(C)(C)CC(C)(C)C)cc(c1O)Cc1cc(C(C)(C)CC(C)(C)C)cc(c1O)Cc1cc(C(C)(C)CC(C)(C)C)cc(c1O)Cc1cc(C(C)(C)CC(C)(C)C)cc(c1O)C2`, the TGI in assay [2], in assay [3], in assay [4], in assay [5], in assay [6] and in assay [7] was > 100 µM each time. For the same molecule, the TGI in assay [8] was > 100 µM.

As for `O=C(c1ccccc1)c1ccc(OCCOc2ccc(Nc3ccccc3)cc2)cc1`, the TGI was > 100 µM in assay [1]; > 100 µM in assay [2]; 54.8 µM in assay [3]; > 100 µM in assay [5]; 48.4 µM in assay [6]; > 100 µM in assay [7]. Besides, the figures for the TGI in [8] and in assay [9] were > 100 µM and 79 µM, respectively.

For `O=C1CCCC/C1=C1\C(=O)Nc2cc(F)ccc21`, the TGI in [1], in assay [2], in assay [3], in assay [4], in [5] and in assay [6] was > 100 µM in each case. The TGI in assay [7], in [8] and in [9] was > 100 µM each time.

Take `CCSC1(SCC)CC(Cc2ccc(OC)cc2)N(C=NC(C)(C)C)C1` (stereo not given): the TGI in [1] is > 100 µM; in [2], 43.1 µM; in assay [3], > 100 µM; in assay [5], 53.8 µM; in assay [6], 38.9 µM; in assay [7] it was 31.3 µM. Besides, the TGI in assay [8] and in [9] was > 100 µM each time.

On to `COc1c(NC(C)=O)cc(C)cc1NC(C)=O`, for which the TGI in assay [2], in assay [3], in assay [4], in [5], in assay [6] and in [7] was > 100 µM in each case. The TGI in [8] and in assay [9] was > 100 µM each time.

Regarding `CCCCCCCCOC(CO)CO`, the TGI in [1], in [2], in assay [3], in assay [4], in assay [5] and in assay [7] was > 100 µM each time. Also, the TGI in assay [8] and in assay [9] was > 100 µM in each case.
